Reference: patent publication US20240270732A1, “RECEPTOR-INTERACTING PROTEIN INHIBITOR, PREPARATION METHOD THEREFOR, AND USE THEREOF” (CHENGDU BIOBEL BIOTECHNOLOGY CO., LTD, priority 2021, published 2024)

Key:
[1] = molecular target: human RIP1 kinase (Homo sapiens (Human), UniProt Q13546); experiment: Inhibitory activity on RIP1 kinase (ADP-Glo); type: biochemical; conditions: human RIP kinase 25 nM
Description: The compound of the present invention and the control compound were dissolved in the assay buffer (50 mM Hepes pH 7.5, 50 mM NaCl, 30 mM MgCl2, 1 mM DTT, 0.02% CHAPS, 0.5 mg/mL BSA), and diluted in a ratio of 1:1.5 using a 22-point titration (high concentration 2 μM), and then added to a 384-well plate. […] After completion of the reaction, 5 μL of ADP-Glo reagent containing 0.02% CHAPS was added to each well and incubated at room temperature for 1 h to terminate the kinase reaction and use up all remaining ATP. Then, 5 μL of ADP-Glo detection solution containing 0.02% CHAPS was added to each well and incubated at room temperature for 30 min to measure the emittance intensity. For each ATP concentration, the activity data was obtained by the emittance intensity minus the control intensity.

[2] = tested on: U937 cells; experiment: Inhibition of necrosis of U937 cells induced by TNF-α (CellTiter-Glo); type: cell-based; conditions: Homo sapiens, U-937; TNF-α 100 ng/ml + AT-406 1 μM + z-VAD-FMK 20 μM, 24 h
Description: (§1) After the cells were incubated in a 5% CO2 incubator at 37° C. for 24 h, the test compound of the present invention and the control compound were diluted to the corresponding pre-determined concentration using the medium, and added to the 384-well plate at 5 μL/well. […] Then, 30 μL of CellTiter-Glo luminescent solution was added to each well, and shaken for 2 min. After standing at room temperature for 10 min, the absorbance was measured using an enzyme-linked immunosorbent assay (ELISA). […] A is the group without necrosis-inducing agents, and B is the group with necrosis-inducing agents.

[3] = tested on: human pancreatic cancer cells PANC-1; experiment: Inhibition of necrosis of PANC-1 cells induced by TNF-α (CellTiter-Glo); type: cell-based; conditions: TNF-α 100 ng/ml + AT-406 1 μM + z-VAD-FMK 20 μM, 24 h
Description: as §1, with “ELISA.” for “an enzyme-linked immunosorbent assay (ELISA).”, “agents. […] A is the group without necrosis-inducing agents, B is the group with necrosis-inducing agents, and X is the group with compounds and necrosis-inducing agents.” for “agents.”

[4] = tested on: HacaT cells; experiment: Inhibition of necrosis of HacaT cells induced by TNF-α (CellTiter-Glo); type: cell-based; conditions: Homo sapiens, TNF-α 100 ng/ml + AT-406 1 μM + z-VAD-FMK 20 μM, 24 h
Description: […] (purchased from ATCC) in logarithmic growth phase were collected and resuspended in 1640 medium, and then the cell concentration was adjusted to 20 cells/μL, to obtain cell suspension, which was seeded in 384-well plate, with 20 μL cell suspension for each well. After the cells were cultured in a 5% CO2 incubator at 37° C. for 24 h, the test compound of the present invention and the control compound were diluted to the corresponding pre-determined concentration using the medium, and added to the 384-well plate at 5 µL/well. […] Then, 30 μL of CellTiter-Glo luminescent solution was added to each well, and shaken for 2 min. After standing at room temperature for 10 min, the absorbance was measured using ELISA. […] A is the group without necrosis-inducing agents, and B is the group with necrosis-inducing agents.

[5] = tested on: human colon cancer cells HT-29; experiment: Inhibition of necrosis of HT-29 cells induced by TNF-α (CellTiter-Glo); type: cell-based; conditions: TNF-α 100 ng/ml + AT-406 1 μM + z-VAD-FMK 20 μM, 24 h
Description: as §1, with “ELISA.” for “an enzyme-linked immunosorbent assay (ELISA).”, “agents. […] A is the group without necrosis-inducing agents, B is the group with necrosis-inducing agents, and X is the group with compounds and necrosis-inducing agents.” for “agents.”

Sequence of human RIP1 kinase (Q13546 whole entry): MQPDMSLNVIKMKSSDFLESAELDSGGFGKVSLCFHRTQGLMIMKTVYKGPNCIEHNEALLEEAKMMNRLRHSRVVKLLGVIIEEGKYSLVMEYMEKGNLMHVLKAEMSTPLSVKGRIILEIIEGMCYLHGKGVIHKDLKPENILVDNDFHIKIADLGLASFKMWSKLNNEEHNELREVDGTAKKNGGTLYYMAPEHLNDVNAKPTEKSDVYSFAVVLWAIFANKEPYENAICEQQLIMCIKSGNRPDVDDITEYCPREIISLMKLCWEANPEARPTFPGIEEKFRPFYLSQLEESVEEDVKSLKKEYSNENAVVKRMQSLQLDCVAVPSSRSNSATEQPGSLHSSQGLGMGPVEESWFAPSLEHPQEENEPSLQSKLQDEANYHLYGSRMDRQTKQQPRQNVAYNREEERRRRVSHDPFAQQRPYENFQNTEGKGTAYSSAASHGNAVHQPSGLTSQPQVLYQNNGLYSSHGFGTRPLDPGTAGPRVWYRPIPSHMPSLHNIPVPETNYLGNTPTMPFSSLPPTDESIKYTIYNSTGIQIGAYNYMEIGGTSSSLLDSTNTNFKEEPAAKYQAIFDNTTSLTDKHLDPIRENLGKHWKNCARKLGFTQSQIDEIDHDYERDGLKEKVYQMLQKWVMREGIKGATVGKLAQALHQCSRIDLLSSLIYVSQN

SMILES	IC50 [1]	IC50 [2]	IC50 ([3]; Homo sapiens, PANC-1)	IC50 ([5]; Homo sapiens, HT-29)	also measured
[2H]C([2H])([2H])N1C(=O)[C@@H](NC(=O)c2ncn(Cc3ccccc3)n2)[C@@H](C)Oc2ccc(C#CCN3CCN(CC#C)CC3)cc21 [Compound I-35]	5.89 nM				
C[C@@H]1Oc2ccc(C#CCN3CCN(CC#Cc4ccc5c(c4)N(C)C(=O)[C@@H](NC(=O)c4ncn(Cc6ccccc6)n4)[C@@H](C)O5)CC3)cc2N(C)C(=O)[C@H]1NC(=O)c1ncn(Cc2ccccc2)n1 [Compound I-40]	66.3 nM				
C[C@H]1Oc2ccc(CCCN3CCN(CCCc4ccc5c(c4)N(C)C(=O)[C@@H](NC(=O)c4n[nH]c(Cc6ccccc6)n4)[C@@H](C)O5)CC3)cc2N(C)C(=O)[C@H]1NC(=O)c1n[nH]c(Cc2ccccc2)n1 [Compound I-124]		6.75 nM			
CC(O)C#Cc1ccc2c(c1)N(C)C(=O)[C@@H](NC(=O)c1ncn(Cc3ccccc3)n1)[C@@H](C)O2 (stereo partly drawn) [Compound I-104]	10.2 nM				
CN1C(=O)[C@@H](NC(=O)c2n[nH]c(Cc3ccccc3)n2)COc2ccccc21 [Control compound 3, reference compound]		7.15 nM	51.3 nM	> 100 nM	IC50 [4]: 9.92 nM
C#Cc1ccc2c(c1)N(C)C(=O)[C@@H](NC(=O)c1nc(Cc3ccccc3)n[nH]1)[C@@H](C)O2 [Compound I-119]		3.19 nM	17.1 nM	15.3 nM	
COCCOCCOCCOCCOCC#Cc1ccc2c(c1)N(C)C(=O)[C@@H](NC(=O)c1ncn(Cc3ccccc3)n1)CO2 [Compound I-102]		2.08 nM	13.8 nM	7.92 nM	IC50 [4]: 3.58 nM
C[C@H]1Oc2ccc(C#Cc3cccnc3)cc2N(C)C(=O)[C@H]1NC(=O)c1n[nH]c(Cc2ccccc2)n1 [Compound I-111]			12.4 nM	13.7 nM	
C[C@H]1Oc2ccc(CCCN3CCN(CCCc4ccc5c(c4)N(C)C(=O)[C@@H](NC(=O)c4ncn(Cc6ccccc6)n4)[C@@H](C)O5)CC3)cc2N(C)C(=O)[C@H]1NC(=O)c1ncn(Cc2ccccc2)n1 [Compound I-122]		7.14 nM			
C[C@H]1Oc2ccc(C#Cc3ccncc3)cc2N(C)C(=O)[C@H]1NC(=O)c1n[nH]c(Cc2ccccc2)n1 [Compound I-109]			12.6 nM	13.1 nM	
C[C@H]1Oc2ccc(C#Cc3cccnc3)cc2N(C)C(=O)[C@H]1NC(=O)c1ncn(Cc2ccccc2)n1 [Compound I-112]	7.21 nM				IC50 [3]: 11.3 nM; IC50 [5]: 10 nM
C#Cc1ccc2c(c1)N(C)C(=O)[C@@H](NC(=O)c1ncn(Cc3ccccc3)n1)[C@@H](C)O2 [Compound I-120]		4.05 nM	15.7 nM	14.6 nM	
C[C@H]1Oc2ccc(C#Cc3ccncc3)cc2N(C)C(=O)[C@H]1NC(=O)c1ncn(Cc2ccccc2)n1 [Compound I-110]			11.1 nM	10.9 nM	
[2H]C([2H])([2H])N1C(=O)[C@@H](NC(=O)c2n[nH]c(Cc3ccccc3)n2)[C@@H](C)Oc2ccc(C#CCN3CCN(CC#C)CC3)cc21 [Compound I-14]	4.52 nM				
COCCOCCOCCOCCOCC#Cc1ccc2c(c1)N(C)C(=O)[C@@H](NC(=O)c1n[nH]c(Cc3ccccc3)n1)CO2 [Compound I-100]		3.14 nM	12.5 nM	8.65 nM	IC50 [4]: 2.39 nM
[2H]C([2H])([2H])N1C(=O)[C@@H](NC(=O)c2n[nH]c(Cc3ccccc3)n2)[C@@H](C)Oc2ccc(C#CCN3CCN(CC#Cc4ccc5c(c4)N(C([2H])([2H])[2H])C(=O)[C@@H](NC(=O)c4n[nH]c(Cc6ccccc6)n4)[C@@H](C)O5)CC3)cc21 [Compound I-15]	4.88 nM				
C[C@H]1Oc2ccc(C#Cc3cccc(N)c3)cc2N(C)C(=O)[C@H]1NC(=O)c1n[nH]c(Cc2ccccc2)n1 [Compound I-117]	12.7 nM				
C[C@H]1Oc2ccc(C#CCN3CCN(CC#Cc4ccc5c(c4)NC(=O)[C@@H](NC(=O)c4ncn(Cc6ccccc6)n4)[C@@H](C)O5)CC3)cc2NC(=O)[C@H]1NC(=O)c1ncn(Cc2ccccc2)n1 [Compound I-38]	4.18 nM				
C[C@H]1Oc2ccc(C#CCN3CCN(CC#Cc4ccc5c(c4)N(C)C(=O)[C@@H](NC(=O)c4n[nH]c(Cc6ccccc6)n4)[C@@H](C)O5)CC3)cc2N(C)C(=O)[C@H]1NC(=O)c1n[nH]c(Cc2ccccc2)n1 [Compound I-2]		4.47 nM	24.4 nM	13 nM	IC50 [4]: 3.89 nM
CN1C(=O)[C@@H](NC(=O)c2ncn(Cc3ccccc3)n2)COc2ccc(CCCN3CCN(CCCc4ccc5c(c4)N(C)C(=O)[C@@H](NC(=O)c4ncn(Cc6ccccc6)n4)CO5)CC3)cc21 [Compound I-121]		6.12 nM			
C#CCN1CCN(CC#Cc2ccc3c(c2)N(C)C(=O)[C@@H](NC(=O)c2ncn(Cc4ccccc4)n2)[C@H](C)O3)CC1 [Compound I-39]	79 nM				
C[C@H]1Oc2ccc(C#CCN3CCN(CC#Cc4ccc5c(c4)N(C)C(=O)[C@@H](NC(=O)c4ncn(Cc6ccccc6)n4)[C@@H](C)O5)CC3)cc2N(C)C(=O)[C@H]1NC(=O)c1ncn(Cc2ccccc2)n1 [Compound I-23]		5.91 nM	17.8 nM	26.4 nM	IC50 [4]: 2.68 nM
CN1C(=O)[C@@H](NC(=O)c2n[nH]c(Cc3ccccc3)n2)COc2ccc(C#CCCCCC#Cc3ccc4c(c3)N(C)C(=O)[C@@H](NC(=O)c3n[nH]c(Cc5ccccc5)n3)CO4)cc21 [Compound I-80]	8.85 nM				
CN1C(=O)[C@@H](NC(=O)c2n[nH]c(Cc3ccccc3)n2)COc2ccc(CCCN3CCN(CCCc4ccc5c(c4)N(C)C(=O)[C@@H](NC(=O)c4n[nH]c(Cc6ccccc6)n4)CO5)CC3)cc21 [Compound I-123]		4.45 nM			
CN1C(=O)[C@@H](NC(=O)c2n[nH]c(Cc3ccccc3)n2)COc2ccc(C#CCN3CCN(CC#Cc4ccc5c(c4)N(C)C(=O)[C@@H](NC(=O)c4n[nH]c(Cc6ccccc6)n4)CO5)CC3)cc21 [Compound I-11]		2.09 nM	20.4 nM	10.8 nM	IC50 [4]: 2.97 nM
COCCOCCOCCOCCOCC#Cc1ccc2c(c1)N(C)C(=O)[C@@H](NC(=O)c1ncn(Cc3ccccc3)n1)[C@@H](C)O2 [Compound I-101]		5.62 nM	13.7 nM	10.1 nM	IC50 [4]: 2.95 nM
C[C@H]1Oc2ccc(C#CCOCCOCCOCCOCCOCC#CC#CCOCCOCCOCCOCCOCC#Cc3ccc4c(c3)N(C)C(=O)[C@H](NC(=O)c3ncn(Cc5ccccc5)n3)[C@@H](C)O4)cc2N(C)C(=O)[C@@H]1NC(=O)c1ncn(Cc2ccccc2)n1 [Compound I-89]	7.44 nM				
CN1C(=O)[C@H](NC(=O)c2ncn(Cc3ccccc3)n2)COc2ccc(C#CCOCCOCCOCCOCCOCC#CC#CCOCCOCCOCCOCCOCC#Cc3ccc4c(c3)N(C)C(=O)[C@H](NC(=O)c3ncn(Cc5ccccc5)n3)CO4)cc21 [Compound I-90]	6.29 nM				
CN1C(=O)[C@@H](NC(=O)c2ncn(Cc3ccccc3)n2)COc2ccc(C#CCN3CCN(CC#Cc4ccc5c(c4)N(C)C(=O)[C@@H](NC(=O)c4ncn(Cc6ccccc6)n4)CO5)CC3)cc21 [Compound I-30]	2.62 nM	4.89 nM	16 nM	16.6 nM	IC50 [4]: 4.07 nM
